Source: US5248771A, “Process for preparing no-carrier-added radiohalogenated vinyl nucleosides” (Triumf, priority 1991, dated 1993)
Read-outs that look alike come from different tables or passages of the source.

Tests used:
[1] = cited from earlier work
[2] = cited from earlier work; remark: listed apart in the source
[3] = system: herpes virus; settings: depending on the strain of herpes virus; cited from earlier work
[4] = system: herpes infected tissue; settings: S. Sacks, Abstract 97, 1988 Interscience Conference; cited from earlier work
[5] = system: HSV-2 (ATCC Strain G); assay: [125I]IVaraU uptake into HFF cells infected with HSV-2, gamma activity per tube; type: cell-based, HSV-2; HFF (Human Foreskin Fibroblast) cells; settings: HSV-2 (ATCC Strain G) infected HFF cells, MOI 1.0, 2.3×10^6 cpm/ml, 6 hours, 37° C.
Method: (§1) Upright roller tubes were seeded with 1.5×10^5 HFF (Human Foreskin Fibroblast) cells/tube in a volume of 1.0 ml of Minimal Essential Medium (MEM) with added 5% FCS (Fetal Calf Serum) and incubated at 37° C. overnight. The growth media was poured off and replaced with 1.0 ml of viral growth media (Med 199 Hank's salts with 2% FCS) containing ^125 I-IVaraU (2.3×10^6 cpm/ml). 100 μl of virus (diluted to appropriate concentration in viral growth media) was added to assay tubes. In this case, a multiplicity of infection of 1.0 was used. 100 μl of viral growth media was added to the control (viral uninoculated) tubes.
(§2) The tubes were centrifuged 5000 g×30 minutes at 37° C., incubated at 37° C., 5% CO2 for 6 hours, and the media was then poured off. The tubes were washed with 4×2 mls warm "cell" phosphate buffered saline (PBS), and 1.0 ml of trypsin-versene solution was added and the tubes were incubated at 37° C. for 5-10 minutes. The cell sheets were removed and transferred to 4 ml polystyrene tubes. The gamma activity was counted with a Gamma counter.

[6] = in vivo; parameters: species or system HSV1; A/J mice; settings: mouse, in vivo, iv, 1 μCurie in 100 μL i.v. tail vein, read-out: brain uptake, % dose per gram in entire brain
From the text: (§3) This example measured the biodistribution of [^125 I]-IVaraU in the bodies of mice infected with HSV throughout the entire body. The brain was emphasized. Various uninfected controls were included to make the interpretation clear.
(§4) […] strain A/J mice were used in all: (i) with [^125 I]IVaraU, 20 mice received HSV1 and 20 mice were uninfected; and (ii) with [^125 I]NaI (a control compared to IVaraU), again 20 mice received HSV1 and 20 mice were uninfected.
(§5) INFECTION: Seven days prior to injection of the drug, each A/J mouse was inoculated by scratching the lip and applying a suspension of herpes simplex virus 1 (HSV1); this was the Kastrukoff murine-adapted strain of HSV1. This inoculation technique is a literature technique which has been established to cause herpes foci of herpes infection in the brains of over 99% of mice so inoculated. See Kastrukoff LF, Lau AS, and Puterman ML. J Gen Virol 67 (1986) 613-621. The HSV1 inoculation may be considered to take place at time "zero minus seven days". ADMINISTRATION OF THE RADIOPHARMACEUTICAL: The mice were divided into four experimental groups based on the two variables +/- HSV1, and IVaraU/NaI. The infected mice were being compared to non-infected mice. The radiopharmaceutical ([^125 I]IVaraU or [^125 I]NaI) was diluted to give 1μ Curie per 100 μL. 100 μL was then injected into the tailvein of each mouse. (Injection may be considered to take place at "time zero".) ANALYSIS OF INDIVIDUAL BODY ORGANS: At times 1h, 4h, 24h, and 48h, 5 mice were taken from each experimental group and sacrificed by exsanguination (the carotid artery was severed with a surgical scalpel). Blood was collected. Each animal was dissected, and the following organs were removed: brain, liver, kidney, pancreas, spleen, stomach, heart, lung, and muscle. Each organ or tissue specimen was weighed and then ^125 I activity was counted in a gamma ray counter. From the data weight, ^125 I, and ^125 I injected dose result values of "% dose per gram" were calculated for the different tissue specimens.

[7] = system: herpes simplex virus 1 (HSV1); assay: in vivo; parameters: species or system HSV1; A/J mice
From the text: as §3, §4, §5

[8] = system: HSV 1 infected cells; assay: uptake of [125I]IVaraU by HSV 1 infected cells compared with uninfected and HSV 2 infected cells; type: cell-based
Method: as §1
The tubes were centrifuged 5000 g×30 minutes at 37° C., incubated at 37° C., 5% CO2 for 6 hours, and the media was then poured off. The tubes were washed with 4×2 mls warm "cell" phosphate buffered saline (PBS), and 1.0 ml of trypsin-versene solution was added and the tubes were incubated at 37° C. for 5-10 minutes. The cell sheets were removed and transferred to 4 ml polystyrene tubes. The gamma activity was counted with a Gamma counter. […]

[9] = system: HSV-1 (ATCC Strain F); assay: [125I]IVaraU uptake into HFF cells infected with HSV-1, gamma activity per tube; type: cell-based, HSV-1; HFF (Human Foreskin Fibroblast) cells; settings: HSV-1 (ATCC Strain F) infected HFF cells, MOI 1.0, 2.3×10^6 cpm/ml, 6 hours, 37° C.
Method: as §1, §2

[10] = system: HFF (Human Foreskin Fibroblast) cells; assay: [125I]IVaraU uptake into uninoculated HFF cells (control), gamma activity per tube; type: cell-based; settings: 2.3×10^6 cpm/ml, 6 hours, 37° C.
Method: as §1, §2

[11] = system: HSV1 strain KOS; assay: [125I]IVaraU uptake in rabbit brain infected with HSV1, gamma counts of brain blocks; type: in vivo, HSV1; New Zealand White rabbits
Method: The rabbit brains were infected with HSV1and then [^125 I]IVaraU was injected. The infection was located by assaying for herpes antigen and also by considering the brain anatomy involved. The assay was performed for [^125 I]IVaraU by gamma ray counts on segments cut from the brain.
INFECTION: Three New Zealand White female rabbits ([…], 2.5-5.0 kg) were anaesthetized by standard intramuscular injections of ketamine and xylazine. A 3.5 inch french tomcat catheter was introduced into the right nostril and 100 μL of the virus inoculation solution was released onto the right cribiform plate (this is a non-invasive means to create a brain infection). The virus inoculation solution consisted of 3.7×10^6 plaque forming units per mL HSV1 strain KOS suspended in commercial media of the type "199 with Hanks' salts". Two rabbits denoted "A" and "B" received the virus suspension exactly as described. A third rabbit denoted "C" was a "control"; it received 100 μL "199 with Hanks' salts" but no virus. The three rabbits were returned to their cages; infection was allowed to develop for 5 days before the injection of [^125 I]VaraU was carried out. INJECTION OF DRUG: 5 days following HSV1 inoculation, each rabbit was given 0.1 to 0.2 millicuries [^125 I]IVaraU suspended in 1 mL standard phosphate buffered saline PBS). The drug was administered by injection into the right marginal ear vein. SACRIFICE OF THE RABBITS: 24H after the [^125 I]IVaraU injection, the rabbits were sacrificed by an overdose of the drug Somnotol (T.M.) (MTC Pharmaceuticals). Following death, each rabbit was perfused with 300-400 mL PBS introduced into the ascending aorta. (The perfusion procedure served to remove blood from vessels in the brain and the body in general.)
The skull was dissected; the brain was cut out and removed. The brain was then sectioned into thirty 0.5 cm thick coronal blocks. The cutting and numbering of the blocks was carried out in a systematic way with respect to brain anatomy. Brain blocks were immersed and stored in 10% formalin. COUNTING OF ^125 I ACTIVITY IN BRAIN BLOCKS: Each block was weighed and then counted in a well-type gamma ray counter. The "counts per minute per gram" was calculated for each block of tissue for rabbits "A", "B" and "C". From each "cpm per gram" in infected rabbits "A" and "B" was subtracted the "cpm per gram" in the corresponding brain block from the uninfected rabbit "C". (The typical value of "cpm per gram" was about 20,000 cpm per gram in rabbit "C".)

## O=c1[nH]c(=O)n([C@@H]2O[C@H](CO)[C@@H](O)[C@@H]2O)cc1/C=C/Br [BrVaraU, (E)-5(2 bromo vinyl)-arabinofuranosyl uracil]
[1]
  metabolic stability in vivo: appeared metabolically stable in vivo

## O=c1[nH]c(=O)n([C@@H]2O[C@H](CO)[C@@H](O)[C@@H]2O)cc1/C=C/Cl [ClVaraU]
[2]
  potency in vivo per unit weight: less potent in vivo

## O=c1[nH]c(=O)n([C@@H]2O[C@H](CO)[C@@H](O)[C@@H]2O)cc1/C=C/F [FVaraU]
[2]
  potency in vivo per unit weight: less potent in vivo

## O=c1[nH]c(=O)n([C@@H]2O[C@H](CO)[C@@H](O)[C@@H]2O)cc1/C=C/I [IVaraU]
[1]
  metabolic stability in vivo: appeared metabolically stable in vivo
[3]
  concentration effectively inhibiting herpes virus: approximately 1×10^-9 g/mL
[2]
  potency in vivo per unit weight: highly potent in vivo per unit weight

## O=c1[nH]c(=O)n([C@@H]2O[C@H](CO)[C@@H](O)[C@@H]2O)cc1/C=C/[123I] [[^123 I]IVaraU]
[4]
  concentrated in herpes infected tissue: concentrated in herpes infected tissue

## O=c1[nH]c(=O)n([C@@H]2O[C@H](CO)[C@@H](O)[C@@H]2O)cc1/C=C/[125I] [[^125 I]IVaraU]
[5]
  Activity/Tube (Average): 14,462 cpm
[6]; Infected
  tissue uptake at 1 h: 1.49 %ID/g
  tissue uptake at 4 h: 0.36 %ID/g
  tissue uptake at 24 h: 0.0379 %ID/g
  tissue uptake at 48 h: 0.0181 %ID/g
[6]; Uninfected
  tissue uptake at 1 h: 1.27 %ID/g
  tissue uptake at 4 h: 0.229 %ID/g
  tissue uptake at 24 h: 0.0024 %ID/g
  tissue uptake at 48 h: 0.0005 %ID/g
[7]; 1H
  brain uptake Ratio infected/uninfected: 1.18
[7]; 4H
  brain uptake Ratio infected/uninfected: 1.57
[7]; 24H
  brain uptake Ratio infected/uninfected: 15.8
[7]; 48H
  brain uptake Ratio infected/uninfected: 36.2
[8]; HSV 1 vs HSV 2 infected cells
  uptake by HSV 1 vs HSV 2 infected cells: HSV 1 infected cells took up more radio compound than HSV 2 infected cells
[8]; vs uninfected cells
  specific uptake by HSV 1 infected cells: taken up specifically by HSV 1 infected cells, as compared with uninfected cells
[9]
  Activity/Tube (Average): 59,914 cpm
[10]
  Activity/Tube (Average): 1,332 cpm
[11]; infected rabbits A and B minus uninfected C, forebrain
  (corrected) activities in brain regions: higher in the forebrain, especially in the olfactory lobes
[11]; infected rabbits, corrected
  activities towards the hindbrain: approached background
  activity in right olfactory lobe vs trigeminal ganglia and Level 1: higher than in the trigeminal ganglia and Level 1
[11]; infected rabbits, corrected, virus given in right nostril
  activity in right vs left olfactory lobe: higher in the right olfactory lobe than the left
[11]; uninfected rabbit "C", 24H after 0.1 to 0.2 millicuries i.v.
  typical cpm per gram in brain blocks of uninfected rabbit C: about 20,000 cpm per gram
